# Source: patent EP1175222B1, “MONTHLY DOSES OF GLYCOPEPTIDE ANTIBIOTICS FOR LONG-TERM PREVENTION OF STREPTOCOCCUS PNEUMONIAE INFECTIONS” (ELI LILLY AND COMPANY, priority 1999, dated 2000)
# Where two headings read alike, the source gives them in different places.
# Experiments:
# [1] = tested on: Streptococcus pneumoniae; assay: MIC90 by NCCLS broth microdilution against a worldwide collection of Streptococcus pneumoniae; type: cell-based
# Method: (§1) The term "MIC" or "minimum inhibitory concentration" refers to the lowest concentration of the agent that prevents visible growth after 18 to 24 hours of incubation. "MIC90" refers to the lowest concentration of the agent that prevents 90% growth after 18 to 24 hours of incubation. "MBC" or "minimal bactericidal concentration" refers to the lowest concentration that results in a 99.9% decline in bacterial numbers. Although the value of the MBC as a clinical test has not been established, it may be useful in special instances where very precise knowledge of the ability of a given antimicrobial agent to kill a specific clinical isolate is critical, as in the therapy of bacterial endocarditis.
# Table 1 lists the in vitro activity of N^DISACC-(4-(4-chlorophenyl)benzyl)A82846B and other compounds against a worldwide collection of Streptococcus pneumoniae. N^DISACC-(4-(4-chlorophenyl)benzyl)A82846B clearly demonstates a significant improvement against all three strains. […]
# MICs were determined using NCCLS broth microdilution methodology (see, Fasola E., Spangler SK., Ednie LM., Jacobs MR., Bajaksouzian S., and Appelbaum PC., "Comparative activities of LY 333328 against penicillin-susceptible and -resistant pneumococci" Antimicrobial Agents & Chemotherapy, 40(11), 2661-3 (1996)).
# [2] = tested on: penicillin-sensitive S. pneumoniae type 3 strain; assay: In-vivo rabbit model of S. pneumoniae meningitis (CSF measurements); conditions: rabbits
# Method: (§2) At 12 h after infection, they were treated with a single dose of N^DISACC-(4-(4-chlorophenyl)benzyl)A82846B [1 mg/kg (n = 5), 2.5 mg/kg (n = 5), 10 mg/kg (n = 10), […] (n = 2)] . N^DISACC-(4-(4-chlorophenyl)benzyl)A82846B was dissolved in 5% glucose and infused over 30 min. Controls received a bolus of ceftriaxone (20 mg/kg body weight) followed by a continuous infusion of 10 mg/kg/h (n = 12). The cerebrospinal fluid (CSF) was drawn at 12, 14, 17, 20, and 24h for the determination of bacterial titers, leukocyte densities, lipoteichoic/teichoic acid, lactate and protein concentrations. The concentration of the neuron-specific enolase in CSF was measured at 24h. Bactericidal activity in CSF was estimated by log-linear regression of bacterial titers versus time. Additionally, time-kill curves were performed with 10 mg/l N^DISACC-(4-(4-chlorophenyl)benzyl)A82846B.
# [3] = tested on: S.pneumoniae; assay: In vitro time-kill curves; type: cell-based; conditions: 10 mg/l
# Method: as §2
# [4] = tested on: S aureus SA027; assay: Mouse protection model, intraperitoneal bacterial challenge; type: in vivo; conditions: mice; dose protecting 50% from lethal infection; two subcutaneous doses 1 and 5 hours after challenge
# Method: (§3) As listed in Table 2, N^DISACC-(4-(4-chlorophenyl)benzyl)A82846B appeared to have activity 30 to 40 times that of vancomycin when given subcutaneously to mice with systemic streptococcal or staphylococcal infections. […] In a murine model of systemic infection, various dosing regimens of N^DISACC-(4-(4-chlorophenyl)benzyl)A82846B administered subcutaneously were compared in animals inoculated intraperitoneally with either S pneumoniae or S aureus. The total dose ranged from 0.18 to 2.01 mg/kg body weight, subdivided into 1 to 24 doses during a 48-hour treatment period. Pharmacokinetic studies were performed in uninfected animals using a bioassay. Using multiple regression analysis to find the pharmacodynamic parameter associated with survival, time above the MIC appeared-to be more important (p<0.00001) than the maximum plasma concentration Cmax (p=0.01); however, for 1- and 2-dose regimens near the ED50, Cmax appeared to be the best predictor of outcome. A more detailed description of this study may be found in Knudsen, J., et al., "Pharmacodynamics of glycopeptides in Animal Models" Abstracts of the 20th International Congress of Chemotherapy, Abstract No. 4076, June (1997). […]
# [5] = tested on: S pneumoniae Park I; assay: as above; type: in vivo; conditions: mice; dose protecting 50% from lethal infection; two subcutaneous doses 1 and 5 hours after challenge
# Method: as §3
# [6] = tested on: S pyogenes C-203; assay: as above; type: in vivo; conditions: mice; dose protecting 50% from lethal infection; two subcutaneous doses 1 and 5 hours after challenge
# Method: as §3
# [7] = design: species or system rats; conditions: rat, in vivo, 5 mg/kg
# Excerpt: Although single doses of N^DISACC-(4-(4-chlorophenyl)benzyl)A82846B may provide high plasma concentrations for a prolonged period of time, it may also be highly desirable to maintain high concentrations in respiratory tissues (the main portal of initial tissue infection and invasion).
# [8] = tested on: penicillin-sensitive S. pneumoniae type 3 strain; assay: MIC and MBC for the meningitis model strain; type: cell-based; conditions: penicillin-sensitive type 3 strain
# Method: as §1
# as §2, with “Bactericidal activity in CSF was estimated by log-linear regression of bacterial titers versus time. Additionally, time-kill curves were performed with 10 mg/l N^DISACC-(4-(4-chlorophenyl)benzyl)A82846B.” left out
# [9] = Safety and pharmacokinetics of single intravenous doses in eight healthy men; type: in vivo
# Method: An open-label, uncontrolled, dose-escalation study was conducted with eight healthy men. All subjects were between 22 and 50 years of age and within 10% of their ideal body weights. Single does, ranging from 0.5 mg/kg body weight to 3 mg/kg body weight, were administered intravenously over 30 minutes. Plasma samples were collected just prior to the start of infusion and at intervals for 336 hours after the end of the infusion for assessment of drug concentration, biochemical and hematologic parameters. N^DISACC-(4-(4-chlorophenyl)benzyl) A82846B plasma and urine concentrations were determined by HPLC and competitive binding radioimmunoassay, respectively. Individual plasma concentration-time profiles were evaluated based on compartmental analysis techniques.
# [10] = tested on: S. pneumoniae; assay: Neutropenic model of S. pneumoniae bacteremia in mice; type: in vivo; conditions: subcutaneously or intravenously at doses ≥ 5 mg/kg body weight
# [11] = design: species or system mice; conditions: mouse, in vivo, sc
# Method: as §3
# [12] = Streptococcus pneumoniae, Intermediate N = 40 (penicillin-intermediate by NCCLS criteria), read-out: MIC90
# [13] = Streptococcus pneumoniae, Resistant N = 42 (penicillin-resistant by NCCLS criteria), read-out: MIC90
# [14] = Streptococcus pneumoniae, Sensitive N = 50 (penicillin-sensitive by NCCLS criteria), read-out: MIC90
# [15] = Intermediate N = 40 (penicillin-intermediate by NCCLS criteria)
# [16] = Resistant N = 42 (penicillin-resistant by NCCLS criteria)
# [17] = Sensitive N = 50 (penicillin-sensitive by NCCLS criteria)
# [18] = estimated by Lineweaver-Burk plot
# [19] = healthy men, single i.v. dose 0.5 to 3 mg/kg over 30 minutes
# [20] = healthy men, single i.v. dose 0.5 to 3 mg/kg over 30 minutes, normalized to dose and weight
compound,measurement,setting,value
CO/N=C(\C(=O)N[C@@H]1C(=O)N2C(C(=O)O)=C(CSc3nc(=O)c(=O)[nH]n3C)CS[C@H]12)c1csc(N)n1 [Ceftriaxone],MIC90,[1]; [12],0.5 µg/mL
same,MIC90,[1]; [13],2 µg/mL
same,MIC90,[1]; [14],0.06 µg/mL
same,"bactericidal activity in CSF, Δlog CFU/ml/h ± SD",[2]; bolus 20 mg/kg body weight then continuous infusion of 10 mg/kg/h,-0.33 ± 0.15 Δlog CFU/ml/h
same,time until S.pneumoniae killed / cultures sterile,[3],12 h
C[C@@H](O)[C@H]1C(=O)N2C(C(=O)O)=C(SCCN=CN)C[C@H]12 [Imipenem],MIC90,[1]; [12],0.125 µg/mL
same,MIC90,[1]; [13],0.5 µg/mL
same,MIC90,[1]; [14],0.03 µg/mL
CC1(C)S[C@@H]2[C@H](NC(=O)Cc3ccccc3)C(=O)N2[C@H]1C(=O)O [Penicillin G],MIC90,[1]; [15],1.0 µg/mL
same,MIC90,[1]; [16],4.0 µg/mL
same,MIC90,[1]; [17],0.06 µg/mL
N^DISACC-(4-(4-chlorophenyl)benzyl)A82846B,MIC90,[1]; [15],0.015 µg/mL
same,MIC90,[1]; [16],0.03 µg/mL
same,MIC90,[1]; [17],0.008 µg/mL
same,ED50,[4],0.009 mg/kg/dose
same,ED50,[5],0.028 mg/kg/dose
same,ED50,[6],0.045 mg/kg/dose
same,lung tissue half life,[7],29 days
same,mean concentration of the neuron-specific enolase in CSF at 24h,"[2]; 10 mg/kg body weight, parameter of neuronal damage, p = 0.14 vs ceftriaxone",92.3 ± 68.7
same,half-maximal dose (KD),[2]; [18],5.3 mg/kg body weight
same,maximum bactericidal rate (Emax),[2]; [18],-0.88 Δlog CFU/ml/h
same,"bactericidal activity in CSF, Δlog CFU/ml/h ± SD",[2]; single dose of 1 mg/kg body weight (only bacteriostatic),0.01 ± 0.11 Δlog CFU/ml/h
same,"bactericidal activity in CSF, Δlog CFU/ml/h ± SD",[2]; single dose of 2.5 mg/kg,-0.26 ± 0.22 Δlog CFU/ml/h
same,"bactericidal activity in CSF, Δlog CFU/ml/h ± SD",[2]; single dose of 10 mg/kg body weight 12 h after infection,-0.29 ± 0.21 Δlog CFU/ml/h
same,"Protein, lactate and lipoteichoic/teichoic acid concentrations in CSF",[2]; single dose of 10 mg/kg body weight compared with ceftriaxone 10 mg/kg/h,no significant differences
same,"bactericidal activity in CSF, Δlog CFU/ml/h",[2]; single dose of 40 mg/kg,-0.52 ± 0.02 Δlog CFU/ml/h
same,MBC,[8],0.03 µg/mL
same,MIC,[8],0.015 µg/mL
same,terminal t1/2,"[9]; healthy men, single i.v. doses, to be interpreted cautiously",10.5 days
same,area under the terminal phase as share of total AUC0-∞,"[9]; human, in vivo, iv",approximately 50%
same,effect on bacteremia,[10],eliminated bacteremia
same,absorption following subcutaneous administration,[11],absorbed poorly
same,time until S.pneumoniae killed / cultures sterile,[3],≤ 1 h
CN[C@H](CC(C)C)C(=O)N[C@H]1C(=O)N[C@@H](CC(N)=O)C(=O)N[C@H]2C(=O)N[C@H]3C(=O)N[C@H](C(=O)N[C@H](C(=O)O)c4cc(O)cc(O)c4-c4cc3ccc4O)[C@H](O)c3ccc(c(Cl)c3)Oc3cc2cc(c3O[C@@H]2O[C@H](CO)[C@@H](O)[C@H](O)[C@H]2O[C@H]2C[C@](C)(N)[C@H](O)[C@H](C)O2)Oc2ccc(cc2Cl)[C@H]1O [Vancomycin],MIC90,[1]; [15],0.5 µg/mL
same,MIC90,[1]; [16],0.5 µg/mL
same,MIC90,[1]; Streptococcus pneumoniae,0.5 µg/mL
same,ED50,[4],0.70 mg/kg/dose
same,ED50,[5],1-1 mg/kg/dose
same,ED50,[6],0.80 mg/kg/dose
N^DISACC-(4-(4-chlorophenyl)benzyl)A82846B Diphosphate,"% dose excreted in urine, Mean (%CV)",[9]; [19],3.1 (42) %
same,"T1/2, Mean (%CV)",[9]; [19],251 (96) hr
same,"AUC0-∞, Mean (%CV)",[9]; [20],201 (62) (µg hr/ml)/(mg/kg)
same,"Cmax, Mean (%CV)",[9]; [20],16.5 (20) (µg/ml)/(mg/kg)
same,"Clp, Mean (%CV)","[9]; healthy men, single i.v. dose 0.5 to 3 mg/kg over 30 minutes, plasma clearance",0.0896 (30) ml/min/kg
same,"Vss, Mean (%CV)","[9]; healthy men, single i.v. dose 0.5 to 3 mg/kg over 30 minutes, steady-state volume of distribution",1.08 (45) 1/kg
CO[C@H]1/C=C/O[C@@]2(C)Oc3c(C)c(O)c4c(O)c(c(/C=N/N5CCN(C)CC5)c(O)c4c3C2=O)NC(=O)/C(C)=C\C=C\[C@H](C)[C@H](O)[C@@H](C)[C@@H](O)[C@@H](C)[C@H](OC(C)=O)[C@@H]1C [Rifampin],MIC90,[1]; [12],0.015 µg/mL
same,MIC90,[1]; [13],> 8 µg/mL
same,MIC90,[1]; [14],0.03 µg/mL
Teicoplanin,MIC90,[1]; [15],0.06 µg/mL
same,MIC90,[1]; [16],0.06 µg/mL
same,MIC90,[1]; [17],0.06 µg/mL
CN[C@H](CC(C)C)C(=O)N[C@H]1C(=O)N[C@@H](CC(N)=O)C(=O)N[C@H]2C(=O)N[C@H]3C(=O)N[C@H](C(=O)N[C@H](C(=O)O)c4cc(O)cc(O)c4-c4cc3ccc4O)[C@H](O[C@H]3C[C@](C)(N)[C@@H](O)[C@H](C)O3)c3ccc(c(Cl)c3)Oc3cc2cc(c3O[C@@H]2O[C@H](CO)[C@@H](O)[C@H](O)[C@H]2O[C@H]2C[C@](C)(N)[C@@H](O)[C@H](C)O2)Oc2ccc(cc2Cl)[C@H]1O [A82846B],ED50,[5],0.18 mg/kg/dose
same,ED50,[6],0.18 mg/kg/dose
